Consider one molecule from BindingDB's records for doi:10.1124/jpet.301.1.322 (Sanofi Synthelabo, 2002).

The target of assay [1] is T1, Corticotropin-releasing factor receptor 1 (Mus musculus, UniProt P35347).
T1 sequence (P35347 whole entry): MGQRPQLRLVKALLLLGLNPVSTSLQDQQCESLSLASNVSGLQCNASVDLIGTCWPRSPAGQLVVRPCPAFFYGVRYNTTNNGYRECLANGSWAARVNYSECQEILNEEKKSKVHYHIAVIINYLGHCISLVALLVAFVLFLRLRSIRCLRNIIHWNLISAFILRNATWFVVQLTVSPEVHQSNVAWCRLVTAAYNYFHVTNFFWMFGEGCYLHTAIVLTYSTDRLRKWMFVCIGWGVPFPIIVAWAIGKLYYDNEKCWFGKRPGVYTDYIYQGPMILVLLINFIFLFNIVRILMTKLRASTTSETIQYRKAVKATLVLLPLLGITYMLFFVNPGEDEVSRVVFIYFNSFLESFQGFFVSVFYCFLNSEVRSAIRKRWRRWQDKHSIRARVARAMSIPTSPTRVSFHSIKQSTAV

In assay [2] the target is T2, Corticotropin-releasing factor receptor 1 (Rattus norvegicus, UniProt P35353).
T2 sequence (P35353 whole entry): T1 sequence (P35347 whole entry) with Q3R, Q29R, S32N, A36T, I118V, Y252H

Assay [3] addresses T3, Corticotropin-releasing factor receptor 1 (Homo sapiens, UniProt P34998).
T3 sequence (P34998 whole entry): T1 sequence (P35347 whole entry) with Q3G, R4H, T23A, Q29H, V39I, I118V, V176M, A186G, V232I, R379H

Positions count from the first letter of the chain named. “And” between values parts separate entries of the source, which are not always exact repeats. Equal values may be shown once.

Take `Cc1ccccc1C(=O)Nc1ccc(C(=O)N2CCCC(O)c3cc(Cl)ccc32)c(C)c1` (stereo not drawn): the Ki (as a rule, a dissociation constant, usually derived from enzyme kinetics or from competition with a known ligand) in assay [1] is 1.26 nM; in assay [2] it was 1.7 nM and 1 nM; in assay [3], 0.83 nM.
